Paper PMC12420824, “Discovery of a selective alpha-kinase 1 inhibitor for the rare genetic disease ROSAH syndrome” (Nature Communications, 2025)

Legend:
Conditions in all cases: read-out: % Enzyme Activity (relative to DMSO control), 10 uM
[1] = target: CDK16/cyclin Y (PCTAIRE) (Homo sapiens, UniProt Q00536); assay: biochemical
Excerpt: (§1) Additionally, a 10-dose dilution series of staurosporine and other enzyme-appropriate compounds were included as positive control inhibitors.

[2] = target: OSR1/OXSR1 (Homo sapiens, UniProt O95747); assay: HotSpot kinase assay
Excerpt: as §1

[3] = target: NIM1 (Homo sapiens, UniProt Q8IY84); assay: HotSpot kinase assay
Excerpt: as §1

[4] = target: MSK1/RPS6KA5 (Homo sapiens, UniProt O75582); assay: HotSpot kinase assay
Excerpt: as §1

[5] = target: p70S6K/RPS6KB1 (Homo sapiens, UniProt P23443); assay: HotSpot kinase assay
[6] = target: DAPK2 (Homo sapiens, UniProt Q9UIK4); assay: HotSpot kinase assay
Excerpt: as §1

[7] = target: NEK11 (Homo sapiens, UniProt Q8NG66); assay: HotSpot kinase assay
Excerpt: as §1

[8] = target: PKCIOTA (Homo sapiens, UniProt P41743); assay: HotSpot kinase assay
Excerpt: as §1

[9] = target: KSR2 (Homo sapiens, UniProt Q6VAB6); assay: HotSpot kinase assay
Excerpt: as §1

[10] = target: AMPK(A1/B2/G1) (Homo sapiens, UniProt Q13131); assay: HotSpot kinase assay
Excerpt: as §1

[11] = target: PDGFRb (Homo sapiens, UniProt P09619); assay: HotSpot kinase assay
[12] = target: MLCK2/MYLK2 (Homo sapiens, UniProt Q9H1R3); assay: HotSpot kinase assay
Excerpt: as §1

[13] = target: TESK2 (Homo sapiens, UniProt Q96S53); assay: HotSpot kinase assay
[14] = target: CDK17/cyclin Y (PCTK2) (Homo sapiens, UniProt Q00537); assay: HotSpot kinase assay
Excerpt: as §1

[15] = target: TESK1 (Homo sapiens, UniProt Q15569); assay: HotSpot kinase assay
Excerpt: as §1

[16] = target: AMPK (A2/B1/G2) (Homo sapiens, UniProt P54646); assay: HotSpot kinase assay
Excerpt: as §1

[17] = target: CDK1/cyclin E (Homo sapiens, UniProt P06493); assay: HotSpot kinase assay
[18] = target: DDR2 (Homo sapiens, UniProt Q16832); assay: HotSpot kinase assay
[19] = target: PDK2/PDHK2 (Homo sapiens, UniProt Q15119); assay: HotSpot kinase assay
[20] = target: EPHB4 (Homo sapiens, UniProt P54760); assay: HotSpot kinase assay
Excerpt: as §1

[21] = target: RSK4 (Homo sapiens, UniProt Q9UK32); assay: HotSpot kinase assay
Excerpt: as §1

[22] = target: RSK3 (Homo sapiens, UniProt Q15349); assay: HotSpot kinase assay
Excerpt: as §1

[23] = target: TRKC (Homo sapiens, UniProt Q16288); assay: HotSpot kinase assay
Excerpt: as §1

[24] = target: ERK2/MAPK1 (Homo sapiens, UniProt P28482); assay: HotSpot kinase assay
[25] = target: TLK2 (Homo sapiens, UniProt Q86UE8); assay: HotSpot kinase assay
Excerpt: as §1

[26] = target: CK1G3 (Homo sapiens, UniProt Q9Y6M4); assay: HotSpot kinase assay
Excerpt: as §1

[27] = target: EGFR (Homo sapiens, UniProt P00533); assay: HotSpot kinase assay
Excerpt: as §1

[28] = target: ROCK1 (Homo sapiens, UniProt Q13464); assay: HotSpot kinase assay
Excerpt: as §1

[29] = target: BRSK2 (Homo sapiens, UniProt Q8IWQ3); assay: HotSpot kinase assay
Excerpt: as §1

[30] = target: GRK1 (Homo sapiens, UniProt Q15835); assay: HotSpot kinase assay
Excerpt: as §1

[31] = target: SIK1 (Homo sapiens, UniProt P57059); assay: HotSpot kinase assay
[32] = target: YSK4/MAP3K19 (Homo sapiens, UniProt Q56UN5); assay: HotSpot kinase assay
Excerpt: as §1

[33] = target: EIF2AK4 (Homo sapiens, UniProt Q9P2K8); assay: HotSpot kinase assay
Excerpt: as §1

[34] = target: TRPM7/CHAK1 (Homo sapiens, UniProt Q96QT4); assay: HotSpot kinase assay
[35] = target: MAPKAPK2 (Homo sapiens, UniProt P49137); assay: HotSpot kinase assay
Excerpt: as §1

[36] = target: PLK2 (Homo sapiens, UniProt Q9NYY3); assay: HotSpot kinase assay
[37] = target: CDK1/cyclin A (Homo sapiens, UniProt P06493); assay: HotSpot kinase assay
Excerpt: as §1

[38] = target: IKKb/IKBKB (Homo sapiens, UniProt O14920); assay: HotSpot kinase assay
[39] = target: PDK1/PDPK1 (Homo sapiens, UniProt O15530); assay: HotSpot kinase assay
PDK1/PDPK1, sequence (O15530 whole entry): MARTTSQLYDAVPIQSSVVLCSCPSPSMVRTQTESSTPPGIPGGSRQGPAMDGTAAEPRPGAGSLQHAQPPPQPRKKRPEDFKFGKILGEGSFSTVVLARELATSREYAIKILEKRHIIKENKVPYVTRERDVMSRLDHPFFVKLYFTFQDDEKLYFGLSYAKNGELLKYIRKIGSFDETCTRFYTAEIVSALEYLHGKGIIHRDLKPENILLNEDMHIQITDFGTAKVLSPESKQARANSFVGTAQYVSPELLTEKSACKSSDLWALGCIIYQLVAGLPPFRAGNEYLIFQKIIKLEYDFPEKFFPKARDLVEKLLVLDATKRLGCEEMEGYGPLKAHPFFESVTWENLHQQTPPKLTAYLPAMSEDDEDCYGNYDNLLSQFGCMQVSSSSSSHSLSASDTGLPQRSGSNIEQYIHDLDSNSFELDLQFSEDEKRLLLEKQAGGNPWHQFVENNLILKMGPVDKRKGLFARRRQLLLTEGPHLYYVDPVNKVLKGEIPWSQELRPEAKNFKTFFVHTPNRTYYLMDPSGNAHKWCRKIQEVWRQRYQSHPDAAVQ

DDR2, sequence (Q16832 22-855): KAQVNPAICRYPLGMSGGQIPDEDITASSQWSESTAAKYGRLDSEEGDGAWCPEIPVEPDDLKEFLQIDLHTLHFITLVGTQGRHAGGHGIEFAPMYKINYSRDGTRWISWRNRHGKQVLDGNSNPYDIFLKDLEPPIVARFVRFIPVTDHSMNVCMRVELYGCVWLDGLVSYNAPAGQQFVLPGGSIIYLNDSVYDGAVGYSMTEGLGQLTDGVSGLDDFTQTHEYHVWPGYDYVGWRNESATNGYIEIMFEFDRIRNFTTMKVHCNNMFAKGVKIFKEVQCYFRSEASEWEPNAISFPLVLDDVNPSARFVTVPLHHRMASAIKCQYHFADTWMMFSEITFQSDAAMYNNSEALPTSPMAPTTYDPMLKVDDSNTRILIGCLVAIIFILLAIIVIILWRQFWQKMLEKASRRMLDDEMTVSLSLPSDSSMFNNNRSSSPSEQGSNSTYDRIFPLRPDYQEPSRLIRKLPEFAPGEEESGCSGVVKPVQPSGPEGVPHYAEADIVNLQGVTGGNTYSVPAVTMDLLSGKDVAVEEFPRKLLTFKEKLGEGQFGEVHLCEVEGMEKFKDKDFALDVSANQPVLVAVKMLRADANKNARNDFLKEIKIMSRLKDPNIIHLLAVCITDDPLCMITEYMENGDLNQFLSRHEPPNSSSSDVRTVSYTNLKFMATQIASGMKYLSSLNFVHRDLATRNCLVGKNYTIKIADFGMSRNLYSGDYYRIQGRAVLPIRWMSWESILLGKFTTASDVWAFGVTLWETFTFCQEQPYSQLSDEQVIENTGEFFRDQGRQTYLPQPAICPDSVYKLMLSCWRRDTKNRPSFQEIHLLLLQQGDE
SIK1, sequence (P57059 whole entry): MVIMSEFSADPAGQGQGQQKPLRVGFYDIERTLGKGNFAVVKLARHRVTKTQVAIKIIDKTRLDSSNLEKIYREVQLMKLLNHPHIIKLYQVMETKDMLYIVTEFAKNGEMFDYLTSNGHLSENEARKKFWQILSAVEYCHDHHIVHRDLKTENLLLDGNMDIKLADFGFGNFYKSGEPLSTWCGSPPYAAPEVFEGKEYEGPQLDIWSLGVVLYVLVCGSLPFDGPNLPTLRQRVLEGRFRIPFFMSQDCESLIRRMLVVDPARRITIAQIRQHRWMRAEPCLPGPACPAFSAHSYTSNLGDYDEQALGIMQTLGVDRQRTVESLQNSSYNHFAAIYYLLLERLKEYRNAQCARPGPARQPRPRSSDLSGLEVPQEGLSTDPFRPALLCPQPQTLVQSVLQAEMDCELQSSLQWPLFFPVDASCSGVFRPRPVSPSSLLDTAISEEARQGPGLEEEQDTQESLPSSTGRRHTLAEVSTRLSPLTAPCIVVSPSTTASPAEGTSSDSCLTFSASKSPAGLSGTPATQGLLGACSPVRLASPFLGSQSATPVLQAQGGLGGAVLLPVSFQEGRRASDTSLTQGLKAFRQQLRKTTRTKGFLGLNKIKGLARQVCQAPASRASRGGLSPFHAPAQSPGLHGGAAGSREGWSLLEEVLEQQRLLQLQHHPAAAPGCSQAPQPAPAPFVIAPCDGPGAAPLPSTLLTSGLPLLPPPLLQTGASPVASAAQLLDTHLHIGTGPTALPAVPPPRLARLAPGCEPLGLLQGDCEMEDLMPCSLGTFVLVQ
OSR1/OXSR1, sequence (O95747 whole entry): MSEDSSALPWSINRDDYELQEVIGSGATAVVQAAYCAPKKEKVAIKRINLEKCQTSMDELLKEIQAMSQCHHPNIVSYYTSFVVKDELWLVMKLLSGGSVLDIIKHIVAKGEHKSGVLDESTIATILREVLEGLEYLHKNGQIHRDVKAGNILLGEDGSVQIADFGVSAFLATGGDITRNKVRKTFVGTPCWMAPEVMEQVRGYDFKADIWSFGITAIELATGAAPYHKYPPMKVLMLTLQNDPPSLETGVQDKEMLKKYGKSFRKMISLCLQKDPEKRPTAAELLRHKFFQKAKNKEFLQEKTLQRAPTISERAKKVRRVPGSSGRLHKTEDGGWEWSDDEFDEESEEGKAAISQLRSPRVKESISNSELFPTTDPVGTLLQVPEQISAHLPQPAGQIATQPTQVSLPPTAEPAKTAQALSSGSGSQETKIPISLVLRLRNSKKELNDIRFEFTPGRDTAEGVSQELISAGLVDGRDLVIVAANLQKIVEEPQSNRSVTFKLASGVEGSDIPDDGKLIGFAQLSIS
RSK4, sequence (Q9UK32 whole entry): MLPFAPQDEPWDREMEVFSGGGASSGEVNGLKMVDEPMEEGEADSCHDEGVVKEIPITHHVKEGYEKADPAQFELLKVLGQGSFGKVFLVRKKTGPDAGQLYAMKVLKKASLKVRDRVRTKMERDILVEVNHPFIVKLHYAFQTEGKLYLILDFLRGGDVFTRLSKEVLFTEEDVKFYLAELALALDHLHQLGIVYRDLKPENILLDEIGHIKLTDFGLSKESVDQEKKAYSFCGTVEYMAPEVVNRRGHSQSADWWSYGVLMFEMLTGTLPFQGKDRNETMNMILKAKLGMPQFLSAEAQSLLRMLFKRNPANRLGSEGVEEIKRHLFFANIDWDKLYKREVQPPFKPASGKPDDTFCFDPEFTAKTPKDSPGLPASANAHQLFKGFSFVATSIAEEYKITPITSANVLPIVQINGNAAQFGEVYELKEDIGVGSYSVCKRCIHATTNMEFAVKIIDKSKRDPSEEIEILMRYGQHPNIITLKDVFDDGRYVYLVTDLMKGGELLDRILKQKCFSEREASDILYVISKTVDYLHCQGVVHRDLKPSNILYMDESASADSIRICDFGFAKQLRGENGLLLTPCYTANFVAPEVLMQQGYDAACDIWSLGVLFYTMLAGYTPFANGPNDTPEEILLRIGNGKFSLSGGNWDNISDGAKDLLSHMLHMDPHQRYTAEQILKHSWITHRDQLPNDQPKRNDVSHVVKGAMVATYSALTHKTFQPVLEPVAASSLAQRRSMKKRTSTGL
CK1G3, sequence (Q9Y6M4 whole entry): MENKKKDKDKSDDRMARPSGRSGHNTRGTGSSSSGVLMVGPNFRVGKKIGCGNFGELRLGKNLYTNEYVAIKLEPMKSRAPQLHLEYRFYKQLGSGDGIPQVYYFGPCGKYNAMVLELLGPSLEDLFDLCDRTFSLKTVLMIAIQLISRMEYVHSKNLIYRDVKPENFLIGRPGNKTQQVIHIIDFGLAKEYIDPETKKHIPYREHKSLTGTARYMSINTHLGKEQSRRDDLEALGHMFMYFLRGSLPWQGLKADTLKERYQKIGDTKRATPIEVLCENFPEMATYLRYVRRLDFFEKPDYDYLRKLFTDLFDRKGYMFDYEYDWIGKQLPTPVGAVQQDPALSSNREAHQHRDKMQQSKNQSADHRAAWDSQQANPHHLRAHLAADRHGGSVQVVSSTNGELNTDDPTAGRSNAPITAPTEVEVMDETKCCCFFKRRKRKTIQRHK
CDK1/cyclin A, sequence (P20248 whole entry): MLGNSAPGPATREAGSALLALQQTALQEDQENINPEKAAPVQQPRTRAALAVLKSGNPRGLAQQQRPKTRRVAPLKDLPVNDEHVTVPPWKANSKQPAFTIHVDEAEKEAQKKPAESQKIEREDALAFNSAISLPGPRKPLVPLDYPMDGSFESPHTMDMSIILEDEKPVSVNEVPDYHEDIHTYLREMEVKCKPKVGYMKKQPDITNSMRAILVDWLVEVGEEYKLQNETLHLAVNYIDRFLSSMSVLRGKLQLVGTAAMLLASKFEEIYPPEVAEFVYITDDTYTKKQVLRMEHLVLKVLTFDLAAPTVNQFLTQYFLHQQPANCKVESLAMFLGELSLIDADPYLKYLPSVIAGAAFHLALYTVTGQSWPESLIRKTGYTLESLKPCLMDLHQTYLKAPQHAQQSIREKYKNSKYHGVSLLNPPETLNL
CDK1/cyclin A, sequence (P06493 whole entry): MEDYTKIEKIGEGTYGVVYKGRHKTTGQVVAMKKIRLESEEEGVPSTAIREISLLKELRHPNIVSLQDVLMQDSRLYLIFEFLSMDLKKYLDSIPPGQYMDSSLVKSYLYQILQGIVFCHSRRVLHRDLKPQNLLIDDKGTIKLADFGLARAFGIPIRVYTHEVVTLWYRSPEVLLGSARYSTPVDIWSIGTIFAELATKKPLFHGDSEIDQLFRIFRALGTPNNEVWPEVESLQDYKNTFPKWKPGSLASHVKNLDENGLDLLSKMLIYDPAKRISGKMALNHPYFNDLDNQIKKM
ERK2/MAPK1, sequence (P28482 whole entry): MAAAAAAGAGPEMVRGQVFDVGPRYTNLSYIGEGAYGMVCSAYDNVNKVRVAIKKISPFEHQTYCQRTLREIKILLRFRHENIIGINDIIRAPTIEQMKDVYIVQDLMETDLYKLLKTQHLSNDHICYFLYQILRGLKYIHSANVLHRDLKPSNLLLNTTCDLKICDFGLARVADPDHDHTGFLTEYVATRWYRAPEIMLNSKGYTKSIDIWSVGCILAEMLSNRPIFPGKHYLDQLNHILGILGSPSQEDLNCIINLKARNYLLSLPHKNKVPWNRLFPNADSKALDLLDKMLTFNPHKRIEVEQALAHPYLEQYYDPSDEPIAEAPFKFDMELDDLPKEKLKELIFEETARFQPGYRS

For C#C[C@@](C)(c1ccc(Cl)cc1)c1csc(NC(=O)c2c(F)cc(N3CCNCC3)cc2F)n1 (stereo in doubt) [DF-003], the remaining activity at 10 µM [1] was 91.8%, the remaining activity at 10 µM [2] was 48.8% and the remaining activity at 10 µM [3] was 52.2%. It also gave a remaining activity at 10 µM [4] of 57.8%, a remaining activity at 10 µM [5] of 69.6% and a remaining activity at 10 µM [6] of 73.9%. It also gave a remaining activity at 10 µM [7] of 75.3%, a remaining activity at 10 µM [8] of 77.5% and a remaining activity at 10 µM [9] of 79.5%. It also gave a remaining activity at 10 µM [10] of 79.6%, a remaining activity at 10 µM [11] of 80.2% and a remaining activity at 10 µM [12] of 81.3%. It also gave a remaining activity at 10 µM [13] of 81.8%, a remaining activity at 10 µM [14] of 82.4% and a remaining activity at 10 µM [15] of 82.9%. For the same compound, the remaining activity at 10 µM [16] was 82.9%, the remaining activity at 10 µM [17] was 83.6% and the remaining activity at 10 µM [18] was 84.6%. For the same compound, the remaining activity at 10 µM [19] was 85.3%, the remaining activity at 10 µM [20] was 85.6% and the remaining activity at 10 µM [21] was 88.3%. For the same compound, the remaining activity at 10 µM [22] was 88.8%, the remaining activity at 10 µM [23] was 91% and the remaining activity at 10 µM [24] was 91.9%. For the same compound, the remaining activity at 10 µM [25] was 92.1%, the remaining activity at 10 µM [26] was 92.5% and the remaining activity at 10 µM [27] was 93.7%. It also gave a remaining activity at 10 µM [28] of 94.8%, a remaining activity at 10 µM [29] of 96% and a remaining activity at 10 µM [30] of 99.3%. It also gave a remaining activity at 10 µM [31] of 99.8%, a remaining activity at 10 µM [32] of 100% and a remaining activity at 10 µM [33] of 101%. For the same compound, the remaining activity at 10 µM [34] was 104%, the remaining activity at 10 µM [35] was 108% and the remaining activity at 10 µM [36] was 109%. For the same compound, the remaining activity at 10 µM [37] was 109%, the remaining activity at 10 µM [38] was 152% and the remaining activity at 10 µM [39] was 174%.
